“And” between values parts separate entries of the source, which are not always exact repeats. Equal entries are not always repeated. Where two headings read alike, the source gives them in different places.
Legend:
PARP1 = experiment: Clinical PET imaging / first-in-human dosimetry of [^18F]FTT and extrapolation to [^211At]PTT; assay type: in vivo
[1] = tested on: marrow progenitor cells (GEMM, GM); experiment: Marrow toxicity by marrow progenitor colony formation assay; assay type: in vivo, CB57/BL6 mice
Method: (§1) Toxicity studies were done in nontumor bearing CB-17 SCID mice (Taconic Biosciences). […] Each arm had n = 10 mice (5 male, 5 female mice). […] The vehicle group received an equal volume of saline (placebo). Weights were obtained twice weekly and mice were monitored daily for signs of toxicity. […] On target hematological and marrow toxicity which was evaluated by complete blood counts and marrow colony formation assay. An additional study was performed under identical conditions to evaluate additive dose effects. […] Each treatment group was composed of equal numbers of male and female mice to rule out gender-specific effects (n = 4 per treatment group per time point). Mice were followed for signs of acute toxicity for 2 weeks and 4 weeks before euthanasia. An additional group (n = 4) treated at 36 MBq/kg was euthanized after 72 h to assess early signs of toxicity by colony formation assays. This time course was chosen to best capture the nadir of bone marrow suppression. After euthanasia, blood was collected and femurs were dissected and processed for histopathology and bone marrow evaluation.
After euthanasia, mouse hind limbs were dissected as previously described for bone and marrow isolation. The other hind limb was processed for bone marrow via centrifugation. Bone marrow pellets were resuspended in 1 X RBC Lysis Buffer (BioLegend, San Diego, CA) and rocked on a tilt-table for 5 minutes. Bone marrow cell pellet was isolated by centrifugation at 13,000 RPM on a tabletop centrifuge for 1 minute. Cells were resuspended in IMDM with 2% FBS (Gibco, ThermoFisher Scientific, Grand Island, New York) and counted on a Countess II Automated Cell Counter (ThermoFisher Scientific, Grand Island, NY).
Colony formation assays were performed per manufacturer’s protocol. In brief, 1.8 ×10^5 bone marrow cells suspended in 300 µL IMDM with 2% FBS were combined with 3 mL of Mouse Methylcellulose Complete Media (R&D Systems Inc, Minneapolis, MN). Gel mixture was syringe-pipetted in duplicate to lids of 6 cm culture dishes and housed with a 6 cm sterile water dish within a 25 cm culture dish. Cultures were incubated at 37 °C for 8 days prior to analysis on a microscope. Colonies were counted by one individual per manufacturer’s recommended protocol. Of note, at least 30 cells were required to call a colony positive.

[2] = assay type: in vivo, CB57 SCID mice
Method: as §1
Su p p lemen t ary Fig u res
Supplementary Fi g u re 1 : Maximum tolerated dose finding studies for [211At]PT T adm inistered as 4
dose fractions given twice weekly in male and female CB57 SCID mice (n=3 per sex per dose level).
(1 picture or pasted object on this page, not shown here)

[3] = Mouse weight over time / tolerability in PDX efficacy study (Fig. 1f); assay type: in vivo
Method: The use of 2 mice per arm was based on the previously reported statistical analysis. PDX tumors were implanted into the right flank of 5 to 6-weeks old female mice weighing about 20–25 grams. […] Two additional dose levels of 12, and 24 MBq/kg/fraction were assessed in a subset of models and were administered as stated above. In two models treated at the 24 MBq/kg/fraction dose level we re-challenged tumor response at the time of tumor progression with an additional 4 dose fractions at 24 MBq/kg/fraction given twice weekly. Doses were prepared in 500 µL total volume. An equal volume of saline was used for the vehicle group. Tumors were measured using a digital caliper at the initiation of the study and two times per week during the treatment period. Tumor volumes were calculated as volume = ([…]∗0.5236)/1000. Weights were obtained twice weekly and mice were monitored daily for signs of toxicity. […] Tumor response was assessed by best response defined as greatest reduction in tumor volume following the last dose and is presented as percent change in tumor volume. Event-free survival was determined by area over the curve method that calculates the time to tumor event, which was defined as tumors reaching or exceeding a size ≥ 2 cm^3.

[4] = 4 wk after 2 dose fractions at 36 MBq/kg/fraction
[5] = 36 MBq/kg x 4 dose fractions, 72 hours post-treatment, replicate
[6] = 48 MBq/kg x 4 dose fractions, 72 hours post-treatment, replicate
[7] = 60 MBq/kg x 4 dose fractions, 72 hours post-treatment, replicate
[8] = dose escalation 36, 48, 60 MBq/kg x 4 fractions

## O=C1NCCn2c(-c3ccc([211At])cc3)nc3cccc1c32 [[^211At]PTT, Astatine-211-parthanatine]
PARP1; RBE of 5 for alpha radiation
  extrapolated equivalent dose to the kidneys: approximately 2 mSv/MBq
PARP1; estimate from [^18F]FTT clinical data and pre-clinical uptake
  estimated SUVmax in neuroblastoma tumors: approximately 10
PARP1; patient, biological half-life 5.1 hr and SUVmax of 10
  rough estimate of absorbed tumor dose: 0.17 Gy per MBq/kg
PARP1; using human biodistribution results of [^18F]FTT in adults
  estimated renal absorbed dose: 0.25–0.41 mGy/MBq
[1]; 3 dose fractions at 36 MBq/kg
  time by which marrow recovery stabilized, GEMM and GM progenitor cells: ≤ 2 weeks
[1]; [4]
  GEMM (CFU): 4 CFU and 7.5 CFU and 6 CFU and 5 CFU
  GM (CFU): 22 CFU and 36.5 CFU and 33 CFU and 24 CFU and 38 CFU
[1]; [5]
  GEMM (CFU): 7 CFU and 3 CFU and 2 CFU and 8 CFU and 14 CFU and 5 CFU and 9 CFU
  GM (CFU): 15 CFU and 10 CFU and 23 CFU and 13 CFU and 9 CFU
[1]; [6]
  GEMM (CFU): 12 CFU and 5 CFU and 7 CFU and 3 CFU and 6 CFU
  GM (CFU): 1 CFU and 5 CFU and 2 CFU and 12 CFU and 6 CFU and 7 CFU
[1]; [7]
  GEMM (CFU): 2 CFU and 3 CFU and 8 CFU and 7 CFU and 6 CFU and 4 CFU
  GM (CFU): 5 CFU and 8 CFU and 7 CFU and 4 CFU
[1]; 72 hrs after 2 dose fractions at 36 MBq/kg/fraction
  GEMM (CFU): 4 CFU and 6 CFU and 3 CFU and 5 CFU and 4.5 CFU
[1]; [8]
  colony formation of early marrow progenitor cells (GEMM): reduced only at the highest dose level evaluated (60 MBq/kg)
  colony formation of granulocyte and megakaryocyte progenitors: reduction in colony formation at all dose levels evaluated
[1]; post treatment, 3 dose fractions at 36 MBq/kg
  time of full recovery of colony formation: 4 weeks
[2]; intra-peritoneal, twice weekly, total of 4 dose fractions
  maximum tolerated dose (MTD): 36 MBq/kg
[2]; x4 fractionated regimen, SCID PDX mice
  maximum tolerated dose (MTD): 36 MBq/kg/fraction
[3]; COG415-325, 12 MBq/kg/fraction x 4, 0.4 Weeks
  Percent Body Weight from study initiation: 100.48% and 95.77%
[3]; COG415-325, 12 MBq/kg/fraction x 4, 1 Weeks
  Percent Body Weight from study initiation: 100.97% and 94.84%
[3]; COG415-325, 12 MBq/kg/fraction x 4, 1.4 Weeks
  Percent Body Weight from study initiation: 100% and 92.96%
[3]; COG415-325, 12 MBq/kg/fraction x 4, 2 Weeks
  Percent Body Weight from study initiation: 97.58% and 92.96%
[3]; COG415-325, 12 MBq/kg/fraction x 4, 2.4 Weeks
  Percent Body Weight from study initiation: 103.86% and 98.12%
[3]; COG415-325, 12 MBq/kg/fraction x 4, 3 Weeks
  Percent Body Weight from study initiation: 102.42% and 99.53%
[3]; COG415-325, 12 MBq/kg/fraction x 4, 3.4 Weeks
  Percent Body Weight from study initiation: 108.7% and 102.35%
[3]; COG415-325, 12 MBq/kg/fraction x 4, 4 Weeks
  Percent Body Weight from study initiation: 111.11% and 110.33%
[3]; COG415-650, 24 MBq/kg/fraction x 4, 0.4 Weeks
  Percent Body Weight from study initiation: 102.79% and 99.52%
[3]; COG415-650, 24 MBq/kg/fraction x 4, 1 Weeks
  Percent Body Weight from study initiation: 96.74% and 92.82%
[3]; COG415-650, 24 MBq/kg/fraction x 4, 1.4 Weeks
  Percent Body Weight from study initiation: 92.56% and 90.43%
[3]; COG415-650, 24 MBq/kg/fraction x 4, 2 Weeks
  Percent Body Weight from study initiation: 90.23% and 87.56%
[3]; COG415-650, 24 MBq/kg/fraction x 4, 2.4 Weeks
  Percent Body Weight from study initiation: 93.49% and 92.34%
[3]; COG415-650, 24 MBq/kg/fraction x 4, 3 Weeks
  Percent Body Weight from study initiation: 100.93% and 99.04%
[3]; COG415-650, 24 MBq/kg/fraction x 4, 3.4 Weeks
  Percent Body Weight from study initiation: 100% and 96.65%
[3]; COG415-650, 24 MBq/kg/fraction x 4, 4 Weeks
  Percent Body Weight from study initiation: 102.33% and 99.04%
[3]; COG415-650, 24 MBq/kg/fraction x 4, 4.4 Weeks
  Percent Body Weight from study initiation: 106.05% and 102.39%
[3]; COG415-650, 24 MBq/kg/fraction x 4, 5 Weeks
  Percent Body Weight from study initiation: 107.44% and 96.65%
[3]; COG415-650, 24 MBq/kg/fraction x 4, 5.4 Weeks
  Percent Body Weight from study initiation: 111.63% and 101.91%
[3]; COG415-650, 24 MBq/kg/fraction x 4, 6 Weeks
  Percent Body Weight from study initiation: 104.31%
[3]; COG415-975, 36 MBq/kg/fraction x 4, 0 Weeks
  Percent Body Weight from study initiation: 100%
[3]; COG415-975, 36 MBq/kg/fraction x 4, 0.4 Weeks
  Percent Body Weight from study initiation: 94.07% and 98.23%
[3]; COG415-975, 36 MBq/kg/fraction x 4, 1 Weeks
  Percent Body Weight from study initiation: 84.75% and 90.71%
[3]; COG415-975, 36 MBq/kg/fraction x 4, 1.4 Weeks
  Percent Body Weight from study initiation: 80.51% and 90.27%
[3]; COG415-975, 36 MBq/kg/fraction x 4, 2 Weeks
  Percent Body Weight from study initiation: 72.88% and 79.65%
[3]; COG415-975, 36 MBq/kg/fraction x 4, 2.4 Weeks
  Percent Body Weight from study initiation: 77.97% and 83.63%
[3]; COG415-975, 36 MBq/kg/fraction x 4, 3 Weeks
  Percent Body Weight from study initiation: 80.08% and 81.86%
[3]; COG415-975, 36 MBq/kg/fraction x 4, 3.4 Weeks
  Percent Body Weight from study initiation: 75.42% and 81.42%
[3]; COG415-975, 36 MBq/kg/fraction x 4, 4 Weeks
  Percent Body Weight from study initiation: 80.93% and 80.09%
[3]; COG415-975, 36 MBq/kg/fraction x 4, 4.4 Weeks
  Percent Body Weight from study initiation: 82.2% and 82.3%
[3]; COG415-975, 36 MBq/kg/fraction x 4, 5 Weeks
  Percent Body Weight from study initiation: 88.56% and 88.05%
[3]; COG415-975, 36 MBq/kg/fraction x 4, 5.4 Weeks
  Percent Body Weight from study initiation: 88.98% and 91.59%
[3]; COG415-975, 36 MBq/kg/fraction x 4, 6.1 Weeks
  Percent Body Weight from study initiation: 96.19% and 92.48%
[3]; COG415-975, 36 MBq/kg/fraction x 4, 6.4 Weeks
  Percent Body Weight from study initiation: 94.07% and 90.71%
[3]; COG415-975, 36 MBq/kg/fraction x 4, 7 Weeks
  Percent Body Weight from study initiation: 99.58% and 93.36%
[3]; COG415-975, 36 MBq/kg/fraction x 4, 7.4 Weeks
  Percent Body Weight from study initiation: 101.27% and 93.36%
[3]; COG415-975, 36 MBq/kg/fraction x 4, 8 Weeks
  Percent Body Weight from study initiation: 95.48%
[3]; COG415-975, 36 MBq/kg/fraction x 4, 8.9 Weeks
  Percent Body Weight from study initiation: 100.44%
[3]; COG415-975, 36 MBq/kg/fraction x 4, 9.4 Weeks
  Percent Body Weight from study initiation: 100.88%
[3]; COG415-975, 36 MBq/kg/fraction x 4, 10 Weeks
  Percent Body Weight from study initiation: 101.77%
[3]; COG415-975, 36 MBq/kg/fraction x 4, 10.4 Weeks
  Percent Body Weight from study initiation: 103.98%
[3]; COG415-975, 36 MBq/kg/fraction x 4, 11 Weeks
  Percent Body Weight from study initiation: 107.08%
[3]; COG415-975, 36 MBq/kg/fraction x 4, 12 Weeks
  Percent Body Weight from study initiation: 105.31%
[3]; COG519-325, 12 MBq/kg/fraction x 4, 0 Weeks
  Percent Body Weight from study initiation: 100%
[3]; COG519-325, 12 MBq/kg/fraction x 4, 0.4 Weeks
  Percent Body Weight from study initiation: 100% and 97.98%
[3]; COG519-325, 12 MBq/kg/fraction x 4, 1 Weeks
  Percent Body Weight from study initiation: 93.83% and 96.97%
[3]; COG519-650, 24 MBq/kg/fraction x 4, 0 Weeks
  Percent Body Weight from study initiation: 100%
[3]; COG519-650, 24 MBq/kg/fraction x 4, 0.4 Weeks
  Percent Body Weight from study initiation: 97.69% and 96.86%
[3]; COG519-650, 24 MBq/kg/fraction x 4, 1 Weeks
  Percent Body Weight from study initiation: 95.37% and 97.38%
[3]; MTD, two out of 22 mice, >50 days from treatment
  mice censored from EFS analysis due to weight loss >20%: 9%
[3]; NBSD-650, 24 MBq/kg/fraction x 4, 2.6 Weeks
  Percent Body Weight from study initiation: 90.4306% and 91.4027%
[3]; NBSD-650, 24 MBq/kg/fraction x 4, 3 Weeks
  Percent Body Weight from study initiation: 94.7368% and 92.3077%
[3]; NBSD-650, 24 MBq/kg/fraction x 4, 3.6 Weeks
  Percent Body Weight from study initiation: 95.2153% and 92.7602%
[3]; NBSD-650, 24 MBq/kg/fraction x 4, 4 Weeks
  Percent Body Weight from study initiation: 98.0861%
[3]; NBSD-975, 36 MBq/kg/fraction x 4, 2.6 Weeks
  Percent Body Weight from study initiation: 84.141% and 86.3636%
[3]; NBSD-975, 36 MBq/kg/fraction x 4, 3 Weeks
  Percent Body Weight from study initiation: 81.9383% and 87.8788%
[3]; NBSD-975, 36 MBq/kg/fraction x 4, 3.6 Weeks
  Percent Body Weight from study initiation: 81.4978% and 88.3838%
[3]; NE-EBC1x tumor-bearing mouse re-challenged with 24 MBq/kg fractionated regimen
  dose-limiting toxicity observed (number): One
[3]; all dose levels
  treated mice that maintained a healthy weight throughout the study (≥100 ± 20% body weight): 43 of 46

Source: article PMC9671962 (Communications Biology, 2022)
